The assay deals with BDF1 mice, P388 leukemia ip, median survival T/C. In words: NCI In Vivo Anticancer Drug Screen. Data for tumor model P388 Leukemia (intraperitoneal) in B6D2F1 (BDF1) mice. To be noted: endpoint: median survival time, higher = longer survival. The method, boiled down: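 Survival ratio, drug arm over vehicle arm, in mice with a transplanted tumour.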
Setting [1] is: dose: 50.0 mg/kg/injection, schedule: Q01DX009 (ip), vehicle: saline with Tween-80.
[2] abbreviates: dose: 100.0 mg/kg/injection, schedule: Q01DX009 (ip), vehicle: saline with Tween-80.
Setting [3] is: dose: 200.0 mg/kg/injection, schedule: Q01DX009 (ip), vehicle: saline with Tween-80.
The mark [4] stands for this setting: dose: 100.0 mg/kg/injection, schedule: Q04DX003 (ip), vehicle: saline with Tween-80.
The mark [5] stands for this setting: dose: 200.0 mg/kg/injection, schedule: Q04DX003 (ip), vehicle: saline with Tween-80.
Where [6] appears, read: dose: 400.0 mg/kg/injection, schedule: Q01DX009 (ip), vehicle: saline with Tween-80.

Our source for the T/C values is PubChem BioAssay AID328 (DTP/NCI, 2004).

Values joined by “and” are separate entries in the source; they are usually repeats but may differ in a detail not shown here. Identical values can stand only once. Toxic doses and inconclusive results are not listed.

Turning to `CC1CN1CCS(=O)(=O)CCN1CC1C` (configuration not stated), the T/C by setting is: (dose: 22.0 mg/kg/injection, schedule: Q04DX003 (ip), vehicle: saline) 105 % of control; (dose: 33.0 mg/kg/injection, schedule: Q04DX003 (ip), vehicle: saline) 100 % of control; (dose: 50.0 mg/kg/injection, schedule: Q04DX003 (ip), vehicle: saline) 111 % of control; (dose: 75.0 mg/kg/injection, schedule: Q04DX003 (ip), vehicle: saline) 122 % of control; (dose: 150.0 mg/kg/injection, schedule: Q01DX009 (ip), vehicle: other) 163 % of control; (dose: 225.0 mg/kg/injection, schedule: Q01DX009 (ip), vehicle: other) 209 % of control.

Turning to `CC1([CH2][Hg][I])COCC([CH2][Hg][I])O1` (configuration not stated), the T/C runs as follows: (dose: 2.87 mg/kg/injection, schedule: Q04DX003 (ip), vehicle: saline) 100 % of control; (dose: 5.0 mg/kg/injection, schedule: Q01DX009 (ip), vehicle: saline with Tween-80) 118 % of control; (dose: 5.0 mg/kg/injection, schedule: Q04DX003 (ip), vehicle: saline with Tween-80) 100 % of control; (dose: 5.75 mg/kg/injection, schedule: Q01DX009 (ip), vehicle: saline) 95 % of control; (dose: 5.75 mg/kg/injection, schedule: Q04DX003 (ip), vehicle: saline) 109 % of control; (dose: 10.0 mg/kg/injection, schedule: Q01DX009 (ip), vehicle: saline with Tween-80) 113 % of control. Further, the T/C reads like this: (dose: 10.0 mg/kg/injection, schedule: Q04DX003 (ip), vehicle: saline with Tween-80) 90 % of control; (dose: 11.5 mg/kg/injection, schedule: Q01DX009 (ip), vehicle: saline) 100 % of control; (dose: 11.5 mg/kg/injection, schedule: Q04DX003 (ip), vehicle: saline) 100 % of control; (dose: 17.0 mg/kg/injection, schedule: Q04DX003 (ip), vehicle: saline) 100 % of control; (dose: 20.0 mg/kg/injection, schedule: Q01DX009 (ip), vehicle: saline with Tween-80) 95 % of control; (dose: 20.0 mg/kg/injection, schedule: Q04DX003 (ip), vehicle: saline with Tween-80) 118 % of control. For the same compound, under “dose: 26.0 mg/kg/injection, schedule: Q04DX003 (ip), vehicle: saline”, the T/C is 118 % of control.

Regarding `COc1ccc(Nc2c3ccccc3nc3ccccc23)cc1`, the T/C under setting [1] was 208 % of control.

Consider `CC(C)(C)OP(=O)(OC(C)(C)C)c1ccccc1`, for which the T/C by setting is: under setting [1], 118 % of control; under setting [2], 98 % of control.

For the compound `O=[N+]([O-])c1ccc(-c2nnc3ncccn23)cc1`, the T/C is, setting by setting: under setting [1], 102 % of control; under setting [2], 98 % of control; under setting [3], 90 % of control.

`CCCCCCCCCCCCCC[N+](C)(C)CC(=O)O`: the T/C by setting is: (dose: 12.5 mg/kg/injection, schedule: Q01DX009 (ip), vehicle: saline with Tween-80) 103 % of control; (dose: 25.0 mg/kg/injection, schedule: Q01DX009 (ip), vehicle: saline with Tween-80) 106 % of control; under setting [1], 113 % of control.

As for `c1cc2c3c(c1)/C(=N\N=C1/CCN4CCCc5cccc1c54)CCN3CCC2`, the T/C under setting [1] was 104 % of control; the T/C (dose: 50.0 mg/kg/injection, schedule: Q04DX003 (ip), vehicle: saline with Tween-80) is 90 % of control; the T/C under setting [2] is 104 % of control; the T/C under setting [4] is 100 % of control; the T/C under setting [3] is 104 % of control; the T/C under setting [5] is 100 % of control.

As to `CCCCC(CC)COC(=O)/C=C/C(=O)OCC(CC)CCCC` (configuration not stated), the T/C was 86 % of control (dose: 100.0 mg/kg/injection, schedule: Q01DX009 (ip), vehicle: Klucel (hydroxypropylcellulose) (HPC)) and 86 % of control (dose: 200.0 mg/kg/injection, schedule: Q01DX009 (ip), vehicle: Klucel (hydroxypropylcellulose) (HPC)).

As for `C[C@]12C=CC(=O)C=C1CC[C@H]1[C@@H]3CCC(=O)O[C@@]3(C)CC(=O)[C@@]12F`, the T/C under setting [2] is 100 % of control, the T/C under setting [3] is 100 % of control and the T/C under setting [6] is 100 % of control.

On to `C[n+]1cc2ccccc2c2ccccc21`, for which the T/C was 95 % of control and 109 % of control (dose: 12.5 mg/kg/injection, schedule: Q01DX009 (ip), vehicle: water); 105 % of control (dose: 12.5 mg/kg/injection, schedule: Q04DX003 (ip), vehicle: water); 108 % of control (dose: 15.0 mg/kg/injection, schedule: Q01DX009 (ip), vehicle: water); 101 % of control and 115 % of control (dose: 25.0 mg/kg/injection, schedule: Q01DX009 (ip), vehicle: water); 114 % of control (dose: 25.0 mg/kg/injection, schedule: Q04DX003 (ip), vehicle: water).

With `O=C(O)C(CSC(c1ccccc1)(c1ccccc1)c1ccccc1)N=Cc1cccs1` (configuration not stated), the T/C was 118 % of control (dose: 2.1 mg/kg/injection, schedule: Q01DX009 (ip), vehicle: saline); 109 % of control (dose: 3.1 mg/kg/injection, schedule: Q01DX009 (ip), vehicle: saline); 175 % of control (dose: 7.2 mg/kg/injection, schedule: Q01DX009 (ip), vehicle: saline); 189 % of control (dose: 11.0 mg/kg/injection, schedule: Q01DX009 (ip), vehicle: saline); 163 % of control (dose: 16.0 mg/kg/injection, schedule: Q01DX009 (ip), vehicle: saline); 185 % of control (dose: 25.0 mg/kg/injection, schedule: Q01DX009 (ip), vehicle: saline). Also, the T/C (dose: 50.0 mg/kg/injection, schedule: Q01DX009 (ip), vehicle: saline) is 200 % of control; the T/C (dose: 66.0 mg/kg/injection, schedule: Q01DX009 (ip), vehicle: saline) is 272 % of control and 177 % of control; the T/C (dose: 100.0 mg/kg/injection, schedule: Q01DX009 (ip), vehicle: saline) was 250 % of control and 90 % of control and 218 % of control; the T/C (dose: 150.0 mg/kg/injection, schedule: Q01DX009 (ip), vehicle: saline) is 100 % of control.

For `O=c1cc(Cl)c2ccccc2[nH]1`, the T/C by setting is: under setting [2], 100 % of control; under setting [4], 109 % of control; under setting [3], 91 % of control; under setting [5], 100 % of control; under setting [6], 100 % of control; (dose: 400.0 mg/kg/injection, schedule: Q04DX003 (ip), vehicle: saline with Tween-80) 100 % of control.

Regarding `CC(OC1C(N)C(O)OC(CO)C1O)C(=O)O` (configuration not stated), the T/C is 103 % of control (dose: 50.0 mg/kg/injection, schedule: Q01DX005 (ip), vehicle: saline); 109 % of control (dose: 100.0 mg/kg/injection, schedule: Q01DX005 (ip), vehicle: saline); 107 % of control (dose: 200.0 mg/kg/injection, schedule: Q01DX005 (ip), vehicle: saline).

Take `Cc1ccc(S(=O)(=O)/C=C/c2ccccc2)cc1`: the T/C is 100 % of control under setting [1], 100 % of control under setting [2] and 103 % of control under setting [3].

As for `COc1ccc(NC(=O)Nc2ccccc2C(F)(F)F)cc1`, the T/C reads like this: (dose: 100.0 mg/kg/injection, schedule: Q01DX001 (ip), vehicle: saline with Tween-80) 95 % of control; (dose: 200.0 mg/kg/injection, schedule: Q01DX001 (ip), vehicle: saline with Tween-80) 100 % of control; (dose: 400.0 mg/kg/injection, schedule: Q01DX001 (ip), vehicle: saline with Tween-80) 90 % of control.

Take `CSC1C(=O)Nc2c1cccc2[N+](=O)[O-]` (configuration not stated): the T/C is 96 % of control (dose: 50.0 mg/kg/injection, schedule: Q04DX002 (ip), vehicle: saline with Tween-80); 92 % of control (dose: 100.0 mg/kg/injection, schedule: Q04DX002 (ip), vehicle: saline with Tween-80); 99 % of control (dose: 200.0 mg/kg/injection, schedule: Q04DX002 (ip), vehicle: saline with Tween-80).

As to `O=[N+]([O-])c1ccc2c(c1)Cc1cc(Br)ccc1-2`, the T/C is, setting by setting: (dose: 100.0 mg/kg/injection, schedule: Q04DX003 (ip), vehicle: Klucel (hydroxypropylcellulose) (HPC)) 100 % of control; (dose: 400.0 mg/kg/injection, schedule: Q04DX003 (ip), vehicle: Klucel (hydroxypropylcellulose) (HPC)) 100 % of control.

As for `CC1(C)NC(=O)N(CN2CCN(CN3C(=O)NC(C)(C)C3=O)CC2)C1=O`, the T/C was 107 % of control (dose: 100.0 mg/kg/injection, schedule: Q04DX003 (ip), vehicle: saline sonified); 115 % of control (dose: 200.0 mg/kg/injection, schedule: Q04DX003 (ip), vehicle: saline sonified); 115 % of control (dose: 400.0 mg/kg/injection, schedule: Q04DX003 (ip), vehicle: saline sonified).
